In PubChem BioAssay AID1963854 (Molecular Pharmacology Branch, DTP, NCI, 2024):
pIC50: −log10 of the molar value.

Tested on: 186277-243-T-J2-PDC complex spheroid viability
Test: Anticancer human tumor 186277-243-T-J2-PDC patient-derived colon adenocarcinoma cell line growth inhibition [POLQ]
Conditions: for pIC50: curve of first compound; for viability, T/C: stronger effect = lower value
Summary of the method: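 Complex spheroid viability model combining PDC tumour cells with endothelial (HUVEC) and MSC stromal cells. Novobiocin, ART-558 or RP6685 were tested singly and in combination with standard and investigational anticancer drugs. Each was titrated in half-log steps from near clinical Cmax, or from 10 microM where Cmax was unknown.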

[1] = second compound 0.0316 µM, first compound 0.0316 µM
[2] = second compound 0.0316 µM, first compound 0.1 µM
[3] = second compound 0.1 µM, first compound 0.0316 µM
[4] = second compound 0.1 µM, first compound 0.1 µM
[5] = second compound 0.316 µM, first compound 0.0316 µM
[6] = second compound 0.316 µM, first compound 0.1 µM
[7] = second compound 1 µM, first compound 0.0316 µM
[8] = second compound 1 µM, first compound 0.1 µM
[9] = second compound 3.16 µM, first compound 0.0316 µM
[10] = second compound 3.16 µM, first compound 0.1 µM
[11] = second compound 10 µM, first compound 0.0316 µM
[12] = second compound 10 µM, first compound 0.1 µM
[13] = second compound 0.0316 µM, first compound 0.316 µM
[14] = second compound 0.0316 µM, first compound 1 µM
[15] = second compound 0.0316 µM, first compound 3.16 µM
[16] = second compound 0.0316 µM, first compound 10 µM
[17] = second compound 0.1 µM, first compound 0.316 µM
[18] = second compound 0.1 µM, first compound 1 µM
[19] = second compound 0.1 µM, first compound 3.16 µM
[20] = second compound 0.1 µM, first compound 10 µM
[21] = second compound 0.316 µM, first compound 0.316 µM
[22] = second compound 0.316 µM, first compound 1 µM
[23] = second compound 0.316 µM, first compound 3.16 µM
[24] = second compound 0.316 µM, first compound 10 µM
[25] = second compound 1 µM, first compound 0.316 µM
[26] = second compound 1 µM, first compound 1 µM
[27] = second compound 1 µM, first compound 3.16 µM
[28] = second compound 1 µM, first compound 10 µM
[29] = second compound 3.16 µM, first compound 0.316 µM
[30] = second compound 3.16 µM, first compound 1 µM
[31] = second compound 3.16 µM, first compound 3.16 µM
[32] = second compound 3.16 µM, first compound 10 µM
[33] = second compound 10 µM, first compound 0.316 µM
[34] = second compound 10 µM, first compound 1 µM
[35] = second compound 10 µM, first compound 3.16 µM
[36] = second compound 10 µM, first compound 10 µM
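Further: spheroids exposed to compounds for seven days.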
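Wherever viability, T/C is given: 100% = DMSO vehicle control viability.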

Structure (SMILES): Cn1ncnc1[C@H]1c2n[nH]c(=O)c3cc(F)cc(c23)N[C@@H]1c1ccc(F)cc1 + Nc1ccc(C#CCN(C(=O)Cc2ncc(C(F)(F)F)cc2C(F)(F)F)c2ccc(F)cc2)nn1
- pIC50 (second compound 0.0316 µM): < 7.00
- pIC50 (second compound 0.1 µM): < 7.00
- pIC50 (second compound 0.316 µM): < 7.00
- pIC50 (second compound 1 µM): < 7.00
- pIC50 (second compound 3.16 µM): < 7.00
- pIC50 (second compound 10 µM): < 7.00
- viability, T/C (second compound 0.0316 µM, first compound 0.000316 µM): 101%
- viability, T/C (second compound 0.0316 µM, first compound 0.001 µM): 90.9%
- viability, T/C (second compound 0.0316 µM, first compound 0.00316 µM): 110%
- viability, T/C (second compound 0.0316 µM, first compound 0.01 µM): 113%
- viability, T/C [1]: 130%
- viability, T/C [2]: 124%
- viability, T/C (second compound 0.1 µM, first compound 0.000316 µM): 103%
- viability, T/C (second compound 0.1 µM, first compound 0.001 µM): 101%
- viability, T/C (second compound 0.1 µM, first compound 0.00316 µM): 111%
- viability, T/C (second compound 0.1 µM, first compound 0.01 µM): 105%
- viability, T/C [3]: 125%
- viability, T/C [4]: 142%
- viability, T/C (second compound 0.316 µM, first compound 0.000316 µM): 87.5%
- viability, T/C (second compound 0.316 µM, first compound 0.001 µM): 110%
- viability, T/C (second compound 0.316 µM, first compound 0.00316 µM): 102%
- viability, T/C (second compound 0.316 µM, first compound 0.01 µM): 111%
- viability, T/C [5]: 119%
- viability, T/C [6]: 143%
- viability, T/C (second compound 1 µM, first compound 0.000316 µM): 91.3%
- viability, T/C (second compound 1 µM, first compound 0.001 µM): 116%
- viability, T/C (second compound 1 µM, first compound 0.00316 µM): 103%
- viability, T/C (second compound 1 µM, first compound 0.01 µM): 106%
- viability, T/C [7]: 120%
- viability, T/C [8]: 126%
- viability, T/C (second compound 3.16 µM, first compound 0.000316 µM): 92.3%
- viability, T/C (second compound 3.16 µM, first compound 0.001 µM): 111%
- viability, T/C (second compound 3.16 µM, first compound 0.00316 µM): 112%
- viability, T/C (second compound 3.16 µM, first compound 0.01 µM): 105%
- viability, T/C [9]: 116%
- viability, T/C [10]: 140%
- viability, T/C (second compound 10 µM, first compound 0.000316 µM): 93.4%
- viability, T/C (second compound 10 µM, first compound 0.001 µM): 104%
- viability, T/C (second compound 10 µM, first compound 0.00316 µM): 106%
- viability, T/C (second compound 10 µM, first compound 0.01 µM): 103%
- viability, T/C [11]: 117%
- viability, T/C [12]: 121%

Structure (SMILES): CCCS(=O)(=O)Nc1ccc(F)c(C(=O)c2c[nH]c3ncc(-c4ccc(Cl)cc4)cc23)c1F + Cc1cccc(N(C)C(=O)C2C(O)CCN2c2nc(C)cc(C(F)(F)F)c2C#N)c1
- pIC50 (second compound 0.0316 µM): < 5.00
- pIC50 (second compound 0.1 µM): < 5.00
- pIC50 (second compound 0.316 µM): < 5.00
- pIC50 (second compound 1 µM): < 5.00
- pIC50 (second compound 3.16 µM): < 5.00
- pIC50 (second compound 10 µM): < 5.00
- viability, T/C [1]: 83%
- viability, T/C [2]: 101%
- viability, T/C [13]: 80.6%
- viability, T/C [14]: 95.6%
- viability, T/C [15]: 82.8%
- viability, T/C [16]: 58%
- viability, T/C [3]: 87.7%
- viability, T/C [4]: 91.2%
- viability, T/C [17]: 79.3%
- viability, T/C [18]: 92.4%
- viability, T/C [19]: 76.8%
- viability, T/C [20]: 56.8%
- viability, T/C [5]: 85.9%
- viability, T/C [6]: 108%
- viability, T/C [21]: 87%
- viability, T/C [22]: 88.2%
- viability, T/C [23]: 77.8%
- viability, T/C [24]: 52.8%
- viability, T/C [7]: 106%
- viability, T/C [8]: 89.3%
- viability, T/C [25]: 99.9%
- viability, T/C [26]: 79.7%
- viability, T/C [27]: 89.7%
- viability, T/C [28]: 51%
- viability, T/C [9]: 115%
- viability, T/C [10]: 88%
- viability, T/C [29]: 83.5%
- viability, T/C [30]: 83.4%
- viability, T/C [31]: 77.3%
- viability, T/C [32]: 56.9%
- viability, T/C [11]: 93.4%
- viability, T/C [12]: 86.9%
- viability, T/C [33]: 93.2%
- viability, T/C [34]: 83.9%
- viability, T/C [35]: 88.1%
- viability, T/C [36]: 56.1%

Structure (SMILES): O=C(c1cc(Cc2n[nH]c(=O)c3ccccc23)ccc1F)N1CCN(C(=O)C2CC2)CC1 + Nc1ccc(C#CCN(C(=O)Cc2ncc(C(F)(F)F)cc2C(F)(F)F)c2ccc(F)cc2)nn1
- pIC50 (second compound 0.0316 µM): < 5.00
- pIC50 (second compound 0.1 µM): < 5.00
- pIC50 (second compound 0.316 µM): < 5.00
- pIC50 (second compound 1 µM): < 5.00
- pIC50 (second compound 3.16 µM): < 5.00
- pIC50 (second compound 10 µM): < 5.00
- viability, T/C [1]: 105%
- viability, T/C [2]: 89.9%
- viability, T/C [13]: 106%
- viability, T/C [14]: 92.3%
- viability, T/C [15]: 107%
- viability, T/C [16]: 121%
- viability, T/C [3]: 97.5%
- viability, T/C [4]: 91.6%
- viability, T/C [17]: 111%
- viability, T/C [18]: 101%
- viability, T/C [19]: 104%
- viability, T/C [20]: 117%
- viability, T/C [5]: 100%
- viability, T/C [6]: 96.7%
- viability, T/C [21]: 98.2%
- viability, T/C [22]: 93.7%
- viability, T/C [23]: 102%
- viability, T/C [24]: 120%
- viability, T/C [7]: 96.1%
- viability, T/C [8]: 101%
- viability, T/C [25]: 98.7%
- viability, T/C [26]: 105%
- viability, T/C [27]: 115%
- viability, T/C [28]: 108%
- viability, T/C [9]: 95%
- viability, T/C [10]: 107%
- viability, T/C [29]: 110%
- viability, T/C [30]: 95.2%
- viability, T/C [31]: 110%
- viability, T/C [32]: 105%
- viability, T/C [11]: 106%
- viability, T/C [12]: 110%
- viability, T/C [33]: 99.5%
- viability, T/C [34]: 102%
- viability, T/C [35]: 117%
- viability, T/C [36]: 95.1%
